Legend:
[1] = tested on: M3 wheat plants from selections FS1-FS4 and Fidel; experiment: M3 Plant Screen: In vivo (seed soak/preemergence application screen)
Procedure: M3 plants from the four initial plant selections (labelled FS1, FS2, FS3 and FS4) are screened for PURSUIT™ resistance. Five M3 seeds from each mature infloresence of these initial M2 mutants are disinfested in 70% EtOH for 30 seconds followed by disinfestation in 50% solution containing 2.625% sodium hypochlorite (as described above) for 20 minutes under vacuum with gentle agitation provided by a stir plate. The seeds are rinsed two times in sterile distilled water.
Each set of five seeds is then placed into 10 ml of a 1500 uM solution of PURSUIT™ in a sterile 60×15 mm plastic petri dish and soaked for three days. The seeds are rinsed with water, dried with paper towels and planted approximately ½″ deep in 6×8 inch peat flats containing moist, sterile Metro Mix 350™. These flats are sprayed preemergence with 300 g/ha of PURSUIT™. Controls include M3 seeds from each resistant selection which are disinfested as previously described, soaked in sterile distilled water for three days and then planted. In addition, unselected susceptible Fidel wheat is disinfested as described above and one-half of the seeds treated with PURSUIT™ (seed soak and spray procedure) and the other half are soaked in water alone. The herbicide is applied with a laboratory belt sprayer at a rate of 950 L/ha with a belt speed of 12.5 sec/rev using sprayer nozzle #40015E.
Four weeks after receiving the initial seed soak, the M3 wheat plants are rated according to whether the plants are herbicide resistant, herbicide damaged or dead. The herbicide resistant plants are transplanted individually to 7.5 inch Azalea pots with Metro Mix 350™. A fertilizer, Osmocote™ (Sierra Company, Milpita, Calif.) is added as a top dressing one week after the plants are transplanted. In addition the plants are fertilized regularly with Peter's 20-20-20™ (Grace Company, Cambridge, Mass.). Individual plants are rated against Fidel untreated controls.

[2] = tested on: AHAS (acetohydroxyacid synthase); experiment: AHAS Enzyme Assay I and II (M4 Plants); assay type: biochemical, wheat
Procedure: Enzyme Extraction: For the extraction of AHAS, 10 grams of tissue are powdered in liquid nitrogen and then homogenized in 100 mM potassium phosphate buffer (pH 7.5) containing 10 mM pyruvate, 5 mM MgCl2, 5 uM EDTA, 100 uM FAD, 1 mM valine, 1 mM leucine, 10% glycerol, and 10 mM cysteine. The homogenate is filtered through a nylon cloth (53 uM mesh) and centrifuged at 25,000 g for 20 minutes. The supernatant fraction is brought to 50% saturation with respect to (NH4)2SO4 and allowed to stand for 20-30 minutes on ice. It is then centrifuged at 25,000 g for 20 minutes and the supernatant is discarded. The ammonium sulfate pellet is dissolved in 50 mM potassium phosphate buffer (pH 7.5) containing 1 mM EDTA and 100 mM NaCl and used for the assay procedures.
AHAS Assay: AHAS activity is measured by estimation of the product, acetolactate, after conversion by decarboxylation in the presence of acid to acetoin. Standard reaction mixtures contain the enzyme in 50 mM potassium phosphate buffer (pH 7.0) containing 100 mM sodium pyruvate, 10 mM MgCl2, 1 mM thiamine pyrophosphate, and 10 uM FAD. This mixture is incubated at 37° C. for one hour after which time the reaction is stopped with the addition of […] to make a final concentration of 0.85% […] in the tube. The reaction product is allowed to decarboxylate at 60° C. for 15 minutes. The acetoin formed is determined by incubating with creatine (0.17%) and 1-napthol (1.7% in 4N NaOH) by the method of Westerfield (Westerfield, W. W., J. Biol. Chem., 161, 495-502 (1945)). Maximum color is observed by incubation at 60° C. for 15 minutes and then further incubation at room temperature for 15 minutes. The absorption of color complex is measured at 520 nm. Appropriate checks of direct acetoin formation during the enzyme assay are made. Each assay is run at least in duplicate and the experiments are repeated a minimum of two times.
Herbicide Application: Two flats are planted with approximately 100 seeds of each wheat selection (FS1, FS2, and FS4) and Fidel in sterile Metro Mix 350. Ten days later, each flat is sprayed postemergence with 62.5 g/ha of PURSUIT™. The spray delivery rate is 400 L/ha with a belt speed of 8.2 sec/rev using nozzle #65015E. Tween 20™ is used as a surfactant at 0.25% v/v. The plants are harvested three days later and assayed for AHAS activity.
Enzyme Extraction and AHAS Assay: As previously described.
Herbicide Application: As described above (Enzyme Assay I) except that the spray delivery rate is 950 l/ha with a belt speed of 12.8 sec/rev using nozzle #40015E.

[3] = tested on: wheat variety Fidel and resistant selections FS2 and FS4; experiment: Preemergence Herbicide Tolerance; assay type: in vivo; conditions: pre-emergence application; plant growth after four weeks; versus Fidel
[4] = tested on: wheat selections FS2 and FS4 and Fidel; experiment: Postemergence Herbicide Tolerance, upper limits; assay type: in vivo; conditions: four weeks after treatment
Excerpt: In this second greenhouse test, the upper limits of the mutant selections' resistance to postemergent applications of PURSUIT™ and Compound 2 are examined. M4 seed of two of the mutant selections, FS2 and FS4, and seed of Fidel are used in this experiment. Five seeds from each line are planted per pot in sterile Metro Mix 350™ in six inch Azalea pots. Immediately prior to herbicide treatment, these plants are thinned to three plants per pot. Three replicates are used per treatment (chemical & rate) for each line, and six replicates per wheat line are used as untreated controls. The plants are sprayed postemergence, 10 days after planting, with the following herbicides and rates (g/ha):
The herbicides are applied as previously described. Plant height is measured immediately prior to spraying. Plant heights are also measured at two and four weeks after treatment, and shoot fresh weights measured at seven weeks after treatment.

[5] = Control 2 = Susceptible wheat seed (Fidel) soaked in herbicide solution, three weeks
[6] = FS1 M3, 1500 uM seed soak + 300 g/ha preemergence, three weeks after herbicide treatment
[7] = FS2 M3, 1500 uM seed soak + 300 g/ha preemergence, three weeks after herbicide treatment
[8] = FS3 M3, 1500 uM seed soak + 300 g/ha preemergence, three weeks after herbicide treatment
[9] = FS4 M3, 1500 uM seed soak + 300 g/ha preemergence, three weeks after herbicide treatment

CCc1cnc(C2=NC(C)(C(C)C)C(=O)N2)c(C(=O)O)c1 (stereo not shown) [PURSUIT, 5-ethyl-2-(4-isopropyl-4-methyl-5-oxo-2-imidazolin-2-yl)-nicotinic acid]
No. of Plants (number of plants raised/number of seeds planted) ([1]; Control 2 = Susceptible wheat seed (Fidel) soaked in herbicide solution): 13/15 | Ave. Shoot Height [1, 5]: 21.2 cm | Range Shoot Heights [1, 5]: 8-30 cm | No. of Plants (number of plants raised/number of seeds planted) ([1]; FS1 M3, 1500 uM seed soak + 300 g/ha preemergence): 48/80 | Ave. Shoot Height [1, 6]: 9.1 cm | Range Shoot Heights [1, 6]: 2-15 cm | germination frequency ([1]; FS1 M3 seed, 1500 uM seed soak + 300 g/ha preemergence): 60% | No. of Plants (number of plants raised/number of seeds planted) ([1]; FS2 M3, 1500 uM seed soak + 300 g/ha preemergence): 36/80 | Ave. Shoot Height [1, 7]: 11.7 cm | Range Shoot Heights [1, 7]: 5-18 cm | germination frequency ([1]; FS2 M3 seed, 1500 uM seed soak + 300 g/ha preemergence): 47.5% | No. of Plants (number of plants raised/number of seeds planted) ([1]; FS3 M3, 1500 uM seed soak + 300 g/ha preemergence): 35/85 | Ave. Shoot Height [1, 8]: 8.0 cm | Range Shoot Heights [1, 8]: 1-14.5 cm | germination frequency ([1]; FS3 M3 seed, 1500 uM seed soak + 300 g/ha preemergence): 41.2% | No. of Plants (number of plants raised/number of seeds planted) ([1]; FS4 M3, 1500 uM seed soak + 300 g/ha preemergence): 44/85 | Ave. Shoot Height [1, 9]: 21.1 cm | Range Shoot Heights [1, 9]: 5-28 cm | germination frequency ([1]; FS4 M3 seed, 1500 uM seed soak + 300 g/ha preemergence): 55% | survival ([1]; non-mutagenized, non-selected Fidel seed, 1500 uM seed soak and 300 g/ha preemergent): does not survive | herbicide symptoms ([1]; some M3 seedlings, progeny of FS4, 1500 uM seed soak + 300 g/ha preemergence): stunting, twisting and/or chlorotic striping | resistance of AHAS activity to inhibition ([2]; homozygous resistant mutant lines, unsprayed plants, compared to Fidel enzyme): moderate levels of resistance | resistance of AHAS activity to inhibition ([2]; selections sprayed with 62.5 g/ha PURSUIT, compared to sprayed Fidel): significantly higher level of resistance | increased tolerance of FS2 and FS4 [3]: approximately 8 fold | rates up to which FS2 and FS4 plant heights equal the untreated controls [4]: 500-1000 g/ha

Source: patent publication US7034208B1, “Ahas inhibiting herbicide resistant wheat and method for selection thereof” (BASF Aktiengellschaft, priority 1991, dated 2006)
